The values below come from patent US7186695B2 (priority 2001, dated 2007).

The test system of assay [1] is BAE cells. Description: cells. Conditions: Bos taurus, Endothelial cell, 24 h, read-out: IC50 for viability.
For assay [2], the system named is HMEC-1 or HUVE cells. Description: Labelling of endothelial cell surface proteins with GSAO-B. Type of assay: cell-based, human. As to conditions: GSAO-B 100 μM, 30 minutes. As for the experimental part: FIG. 16. Identification of endothelial cell surface proteins that contain closely spaced dithiol(s). A The surface of HMEC-1 or HUVE cells (2×10^6 cells in 0.4 mL) was labelled with GSAO-B (100 μM) for 30 minutes at room temperature in the absence (lanes 1 and 3) or presence of DMP (400 μM) (lane 2). The endothelial cells were lysed and the lysate from both incubations was resolved on 4–15% SDS-PAGE, transferred to PVDF membrane, and blotted with streptavidin peroxidase to detect the GSAO-B label. The results represent labelling of 3×10^4 HMEC-1 (lanes 1 and 2) of HUVE cells (lane 3). The positions of Mr markers are shown at left. B Densitometry profile of the surface labelled proteins (lanes 1 and 3). The apparent Mr's of the individual proteins are indicated.
Human umbilical vein endothelial cells (HUVEC) (Wall et al., 1978) and the human dermal microvascular endothelial cell line, HMEC-1 (Ades et al., 1992), were harvested and cultured as indicated. […] Bound proteins were washed 5 times with 50 mM Tris/HCl, pH 8 buffer containing 0.15 M NaCl and 0.05% Triton X-100, resolved on SDS-PAGE, transferred to PVDF membrane, and the GSAO-B-labelled proteins detected by Western blot.

In assay [3] the target is T1, Thioredoxin (Homo sapiens, UniProt P10599).
T1 construct: purchased American Diagnostica, Greenwich, Conn; host or cells: E. coli
T1 sequence (P10599 1-105): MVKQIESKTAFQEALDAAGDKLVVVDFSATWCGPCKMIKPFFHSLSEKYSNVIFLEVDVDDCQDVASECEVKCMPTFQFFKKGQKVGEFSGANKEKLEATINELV
Description: Incorporation of GSAO-B into purified protein, streptavidin-peroxidase blot. The class given is binding. Conditions: GSAO-B 100 μM, protein 5 μM, 30 minutes. As for the experimental part:
(§1) FIG. 14. Interaction of GSAO-B with PDI and thioredoxin. A Structure of GSAO-B. B Purified human recombinant PDI (5 μM), human recombinant thioredoxin (5 μM) or bovine serum albumin (5 μM) was incubated with dithiothreitol (10 μM) for 60 minutes at room temperature to ensure that the active site disulfide(s) of PDI and thioredoxin were in the reduced dithiol form. GSAO-B (100 μM) or GSAO-B and DMP (400 μM) was then added and the reactions incubated for 30 minutes at room temperature. The labelled PDI (lanes 1 and 2), thioredoxin (lanes 3 and 4) and albumin (lane 5) (75 pmoles) was resolved on […] SDS-PAGE, transferred to PVDF membrane, and blotted with streptavidin-peroxidase to detect the GSAO-B label. The positions of Mr markers are shown at left.
(§2) Human recombinant PDI and thioredoxin bound GSAO-B (FIG. 14). Recombinant human protein disulfide isomerase (PDI) was produced in E. coli and purified according to Jiang et al. (1999). In the experiment, purified PDI, thioredoxin or albumin as negative control were incubated with a 2-fold molar excess of dithiothreitol for 60 minutes to ensure that the active site disulfides of PDI and thioredoxin were in the reduced dithiol state. The proteins were then incubated with GSAOB or GSAO-B and a 4-fold molar excess of DMP for 30 minutes. Equivalent moles of the labelled proteins were resolved on SDS-PAGE, transferred to PVDF membrane, and blotted with streptavidin-peroxidase to detect the GSAO-B label. Samples were resolved on 4–15% SDS-PAGE under non-reducing conditions (Laemmli, 1970) and transferred to PVDF membrane. Proteins were detected by Western blot using an anti-PDI murine monoclonal antibody (Jiang et al., 1999) (used at 2 μg per mL). Rabbit anti-mouse horseradish peroxidase conjugated antibodies (Dako Corporation, Carpinteria, Calif.) were used at 1:2000 dilution. GSAO-B-labelled proteins were blotted with streptavidin peroxidase (Amersham, Sydney, NSW) used at 1:1000 dilution. […] Chemiluminescence films were analysed using a GS-700 Imaging Densitometer and Multi-Analyst software (Bio-Rad, Hercules, Calif.).

In assay [4] the target is T2, Human recombinant PDI (Homo sapiens, UniProt P07237).
T2 construct: made in house; host or cells: E. coli
Described as above. The class given is binding. As for the experimental part: as §1, §2

In assay [5] the target is bovine serum albumin (Bos taurus, UniProt P02769). Description: Incorporation of GSAO-B into purified protein, streptavidin-peroxidase blot (negative control protein). The class given is binding. As to conditions: GSAO-B 100 μM, protein 5 μM, 30 minutes. As to the method:
as §1
Human recombinant PDI and thioredoxin bound GSAO-B (FIG. 14). Recombinant human protein disulfide isomerase (PDI) was produced in E. coli and purified according to Jiang et al. (1999). […] Proteins were detected by Western blot using an anti-PDI murine monoclonal antibody (Jiang et al., 1999) (used at 2 μg per mL). […] Chemiluminescence films were analysed using a GS-700 Imaging Densitometer and Multi-Analyst software (Bio-Rad, Hercules, Calif.).

Assay [6] deals with PDI on the endothelial cell surface. Description: GSAO-B labelling of cell surface PDI, streptavidin-agarose pull-down and anti-PDI blot. Type of assay: cell-based, bovine. Conditions: GSAO-B 100 μM, absence of DMP. As for the experimental part:
FIG. 17. PDI was one of the GSAO-B labelled proteins on the endothelial cell surface. HUVEC (5×10^6 cells in 0.75 mL) were labelled with GSAO-B (100 μM) for 30 minutes at 37° C. in the absence (lanes 1) or presence of DMP (400 μM) (lane 2). The cells were lysed and incubated with streptavidin-agarose beads to collect the biotin-labelled proteins. The labelled proteins were resolved on 4–15% SDS-PAGE, transferred to PVDF membrane, and blotted with anti-PDI monoclonal antibodies. The results represent labelling of 5×10^6 endothelial cells. The positions of Mr markers are shown at left.
BAE cells were labelled with GSAO-B in the absence or presence of DMP, lysed and incubated with streptavidin-agarose beads to collect the biotin-labelled proteins. The labelled proteins were eluted from the beads, resolved on SDS-PAGE, transferred to PVDF membrane, and blotted with anti-PDI polyclonal antibodies.

“Also recorded” adds a separate entry of the source. Some results are limits rather than exact numbers.

T2 sequence (P07237 18-508): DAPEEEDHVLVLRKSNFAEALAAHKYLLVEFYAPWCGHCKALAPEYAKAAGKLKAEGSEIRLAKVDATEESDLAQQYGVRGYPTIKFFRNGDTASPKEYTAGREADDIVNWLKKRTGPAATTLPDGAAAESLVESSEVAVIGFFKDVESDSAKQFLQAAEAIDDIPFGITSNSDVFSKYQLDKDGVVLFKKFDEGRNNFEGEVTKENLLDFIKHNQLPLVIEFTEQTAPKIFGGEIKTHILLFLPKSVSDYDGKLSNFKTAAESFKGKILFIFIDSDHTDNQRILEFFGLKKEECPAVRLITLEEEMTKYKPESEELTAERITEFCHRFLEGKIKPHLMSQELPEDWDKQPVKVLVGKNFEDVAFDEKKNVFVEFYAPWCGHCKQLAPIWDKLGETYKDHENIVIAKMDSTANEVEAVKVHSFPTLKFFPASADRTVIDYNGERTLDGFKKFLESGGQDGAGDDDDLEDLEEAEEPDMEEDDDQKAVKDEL
Chain of bovine serum albumin (P02769 25-607): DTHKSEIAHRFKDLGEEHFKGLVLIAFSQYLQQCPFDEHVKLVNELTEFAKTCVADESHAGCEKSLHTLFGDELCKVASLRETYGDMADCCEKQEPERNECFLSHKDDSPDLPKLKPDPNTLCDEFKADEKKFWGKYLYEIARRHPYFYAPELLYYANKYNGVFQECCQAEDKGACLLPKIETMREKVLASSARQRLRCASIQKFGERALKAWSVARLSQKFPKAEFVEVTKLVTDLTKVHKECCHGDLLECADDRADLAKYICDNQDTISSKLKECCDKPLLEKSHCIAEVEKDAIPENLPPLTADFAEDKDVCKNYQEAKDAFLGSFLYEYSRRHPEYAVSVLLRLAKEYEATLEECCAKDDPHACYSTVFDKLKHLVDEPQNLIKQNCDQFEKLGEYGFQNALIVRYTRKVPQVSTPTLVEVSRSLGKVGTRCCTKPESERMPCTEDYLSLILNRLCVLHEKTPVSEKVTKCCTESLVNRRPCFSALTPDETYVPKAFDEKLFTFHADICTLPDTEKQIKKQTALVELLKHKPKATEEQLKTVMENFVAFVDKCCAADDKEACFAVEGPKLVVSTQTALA

In the case of `O=[As]c1ccc(NC(=O)CSCCC(=O)N[C@@H](CC(=O)O)C(=O)O)cc1` (stereo partly drawn) [AspAO, N-(3-(4-arsenoso-phenylcarbamoylmethylthio)propanoyl)-L-aspartic acid], in assay [1], the IC50 – broadly, the concentration that inhibits the measured activity by half – was less than 1 µM.

Regarding `O=[As]c1ccc(NC(=O)CSCCC(=O)N[C@H]2C(O)O[C@H](CO)[C@@H](O)[C@@H]2O)cc1` (stereo partly drawn) [GlcAO, N-(3-(4-arsenosophenylcarbamoylmethylthio)propanoyl)-D-glucosamine], in assay [1], the half-inhibitory concentration (IC50) was less than 1 µM.

With `O=[As]c1ccc(NC(=O)CSCCC(=O)N[C@@H](CS(=O)(=O)O)C(=O)O)cc1` (stereo partly drawn) [Cys*AO, N-(3-(4-arsenosophenylcarbamoylmethylthio)propanoyl)-L-cysteic acid], the IC50 in assay [1] was less than 10 µM.

Consider “4-(N-(S-(N-(6-(N-(6-(N-(biotinoyl)-amino)hexanoyl)amino)hexanoyl)glutathiony)acetyl)amino)phenylarsenoxide [GSAO-B]”, for which the “proteins on the endothelial cell surface that incorporated GSAO-B” value in assay [2] is “approximately ten proteins”. In addition, the “incorporation of GSAO-B” value in assay [3] is reported as “bound GSAO-B; also recorded: incorporated GSAO-B”; in assay [4] (GSAO-B 100 μM, protein 5 μM, 30 minutes) it was “bound GSAO-B; also recorded: incorporated GSAO-B”; in assay [5] it was “albumin did not”. For the same molecule, the “density of labelling of PDI relative to thioredoxin” value in assay [4] (equivalent moles of labelled proteins) is on record as “approximately twice”. In addition, the “labelling of cell surface PDI by GSAO-B” value in assay [6] was “PDI was one of the proteins on the endothelial cell surface that incorporated GSAO-B”.

For the molecule `O=[As]c1ccc(NC(=O)CSCCC(=O)N[C@@H](CCC(=O)O)C(=O)O)cc1` (stereo partly drawn) [GluAO, N-(3-(4-arsenosophenylcarbamoylmethylthio)propanoyl)-L-glutamic acid], the IC50 in assay [1] was less than 10 µM.
